Assay results published in patent US20240092745A1, “DRUGS AND COMPOSITIONS FOR THE TREATMENT OF OCULAR DISORDERS” (Graybug Vision, Inc., priority 2017, published 2024).
≈ marks a conversion by molar mass, not a printed value. Entries after “also recorded” stand apart in the source; their conditions may differ. Counter-ions that a name gives are not always drawn. Like-named read-outs stand apart in the source and are kept apart here. Blank lines part the entries; values can stand above or below the molecule they belong to.

Tests used:
[1] = In vitro stability of prodrugs (degradation to parent, RP-HPLC); assay type: physicochemical; conditions: for degradation kinetics / hydrolysis to parent, in words: PBS (pH 7) with 10% DMSO, RP-HPLC
Protocol: Prodrugs of interest were dissolved in PBS (pH 7) containing 10% DMSO (v/v) at a concentration of 0.1 mg/mL. The samples were incubated at 37° C. or 50° C. to simulate physiological and accelerated degradation conditions, respectively. At various time points, 500 μL of the solution was collected, filtered through a 0.2 μm nylon syringe filter and analyzed by RP-HPLC.
Timolol-Dorzolamide bi-functional prodrugs were dissolved in a mixture of DMSO and PBS and incubated at 37° C. The solution was aliquoted and analyzed by HPLC at pre-determined time points. Timolol-Dorzolamide bi-functional prodrugs were stable for about 3 hours as evidenced by the significant reduction of prodrug peaks in HPLC after 2-3 hours (FIG. 30A and FIG. 30B). Timolol parent drug was detected as the bi-functional prodrug degraded, whereas Dorzolamide appeared in the form of prodrugs, i.e., Dorzolamide linked with 1-3 PLA units.

[2] = Determination of drug solubility in aqueous and organic solvent; assay type: physicochemical; conditions: for solubility: thermodynamic from solid;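 for all read-outs here: solid drug suspended at 50 mg/mL nominal in each solvent, vortexed and sonicated, then dissolved concentration in filtered supernatant quantified by HPLC against a calibration curve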
Protocol: For each test, approximately 5-10 mg was transferred to a 10 mL glass vial. Aqueous or organic solvent was added to each vial to achieve an overall concentration of 50 mg/mL. After vortexing aggressively for 2-3 minutes and sonicating in a bath sonicator for 5 minutes, undissolved drug was spun down at 1200 rpm for 5 minutes to generate a pellet. The supernatant was collected and filtered through a 0.2 μm nylon syringe filter into HPLC vials for drug content analysis. Drug concentration was determined by comparing against a standard calibration curve.

[3] = organic solvent or mixture, Table 3B, DMSO, read-out: Solubility DMSO
[4] = Table 3B, water, drug added to 50 mg/mL, read-out: Solubility Water
[5] = organic solvent or mixture, Table 3A, DMSO, read-out: Solubility DMSO
[6] = Table 3B, water, drug added to 50 mg/mL
[7] = organic solvent or mixture, Table 3A, DCM, read-out: Solubility DCM
[8] = Table 3A, water, drug added to 50 mg/mL, read-out: Solubility Water

time in which prodrug cleaves to afford the active moieties ([1]; 37° C.): less than 5 hours
Molecule: CCN[C@H]1C[C@H](C)S(=O)(=O)c2sc(S(=O)(=O)NC(=O)[C@H](C)OC(=O)[C@H](C)OC(=O)[C@H](C)OC(=O)CCCC(=O)O[C@@H](CNC(C)(C)C)COc3nsnc3N3CCOCC3)cc21 [Compound 64-4, Timolol-O-glutarate-PLA(n=3)-Dorzolamide maleate salt]

solubility [2, 3]: > 100 mg/mL
solubility [2, 4]: < 1 mg/mL
Molecule: CCCCCCCCCCCCCCCCCC(=O)O[C@@H](C)C(=O)O[C@H](COc1nsnc1N1CCOCC1)CN(C(C)=O)C(C)(C)C [Compound 65-1]
degradation kinetics / hydrolysis to parent, in words ([1]; 37° C.): resistant to hydrolysis and failed to release the parent over the course of the study; also recorded: resistant to hydrolysis

solubility [2, 3]: > 50 mg/mL
solubility [2, 4]: < 0.01 mg/mL
Molecule: CCCCC/C=C\C/C=C\CCCCCCCC(=O)O[C@@H](CNC(C)(C)C)COc1nsnc1N1CCOCC1.O=C(O)/C=C\C(=O)O [Compound 70-1, Timolol-O-linoleic acid maleate]
degradation kinetics / hydrolysis to parent, in words ([1]; 37° C.): degraded steadily over the 4-day period, releasing parent Timolol in a linear rate; also recorded: steady generation of the parent Timolol

Molecule: CC/C=C\C/C=C\C/C=C\C/C=C\C/C=C\C/C=C\CCC(=O)O[C@@H](C)C(=O)O[C@@H](C)C(=O)O[C@H](COc1nsnc1N1CCOCC1)CN(C(C)=O)C(C)(C)C [Compound 102-1, N-acyl-Timolol-PLA (n=2)-DHA]
degradation kinetics / hydrolysis to parent, in words ([1]; 37° C.): steady generation of intermediate degradants and slow hydrolysis to the parent compound; also recorded: steady generation of the intermediate N-acyl-Timolol-PLA (n=1)-DHA and slow hydrolysis to parent Timolol

solubility [2, 5]: 100 mg/mL (≈ 105 mM)
Molecule: CC(=O)O[C@@H](C)C(=O)O[C@@H](C)C(=O)O[C@@H](C)C(=O)O[C@@H](C)C(=O)N1CCN(C(=O)[C@H](C)OC(=O)[C@H](C)OC(=O)[C@H](C)OC(=O)[C@H](C)OC(C)=O)C1=Nc1ccc2nccnc2c1Br [Compound 116-1, Brimonidine-bis-acetyl PLA(n=4)]

solubility [2, 3]: > 50 mg/mL
solubility [2, 4]: < 1 mg/mL
polymer hydrolyzed to release free Timolol ([1]; by day 13, 37° C.): approximately 50%
Molecule: CCOC(=O)CCC(=O)O[C@H](COc1nsnc1N1CCOCC1)CN(C(=O)[C@H](C)OC(=O)[C@H](C)OC(C)=O)C(C)(C)C [Compound 117-6, Timolol-bis-N-acetyl-PLA(n=2)-O-ethyl-succinate]

solubility [2, 3]: > 50 mg/mL
solubility [2, 4]: < 0.1 mg/mL
Molecule: CC(=O)O[C@@H](C)C(=O)O[C@@H](C)C(=O)O[C@H](COc1nsnc1N1CCOCC1)CN(C(=O)[C@H](C)OC(=O)[C@H](C)OC(C)=O)C(C)(C)C [Compound 118-1, Timolol-bis-N-acetyl-PLA(n=2)]
degradation kinetics / hydrolysis to parent, in words ([1]; 37° C.): degraded slightly faster than a Timolol-bis-N-acetyl PLA(n=4) (119-6)

solubility [2, 3]: > 50 mg/mL
solubility [2, 4]: < 1 mg/mL
Molecule: CCOC(=O)CCC(=O)O[C@H](COc1nsnc1N1CCOCC1)CN(C(=O)[C@H](C)OC(=O)[C@H](C)OC(=O)[C@H](C)OC(=O)[C@H](C)OC(C)=O)C(C)(C)C [Compound 120-1, Timolol-bis-N-acetyl-PLA(n=4)-O-ethyl succinate]
degradation kinetics / hydrolysis to parent, in words ([1]; 37° C.): degraded to free Timolol incompletely by day 13

solubility [2, 3]: > 50 mg/mL
solubility [2, 4]: < 0.006 mg/mL
Molecule: CC(=O)OC(C)C(=O)OC(C)C(=O)OC(C)C(=O)OC(C)C(=O)N(C[C@@H](COc1nsnc1N1CCOCC1)OC(=O)C(C)OC(=O)C(C)OC(C)=O)C(C)(C)C (stereo partly shown) [Compound 229, Timolol-bis-N-acetyl-PLA(n=4)-O-acetyl PLA(n=2)]

solubility [2, 3]: > 50 mg/mL
solubility [2, 4]: < 0.007 mg/mL
Molecule: CC(=O)OC(C)C(=O)OC(C)C(=O)OC(C)C(=O)OC(C)C(=O)O[C@H](COc1nsnc1N1CCOCC1)CN(C(=O)C(C)OC(=O)C(C)OC(C)=O)C(C)(C)C (stereo partly shown) [Compound 230, Timolol-bis-N-acetyl-PLA(n=2)-O-acetyl PLA(n=4)]

Solubility DCM ([2]; Table 3B, DCM): <1.0 mg/mL
Solubility DMSO ([2]; Table 3B, DMSO): <1.0 mg/mL
Solubility Water [2, 6]: >50 mg/mL
solubility [2, 7]: < 1 mg/mL
solubility [2, 5]: < 1 mg/mL
solubility [2, 8]: > 50 mg/mL
Molecule: CCN[C@H]1C[C@H](C)S(=O)(=O)c2sc(S(N)(=O)=O)cc21 [Dorzolamide, reference compound]

Molecule: CCN[C@H]1C[C@H](C)S(=O)(=O)c2sc(S(=O)(=O)NC(=O)[C@H](C)O)cc21 [Dorzolamide-PLA (n = 1), dorzolamide-PLA (n=1)]
Solubility DMSO ([2]; Table 3A, DMSO): <1.0 mg/mL
Solubility Water ([2]; Table 3A, water, drug added to 50 mg/mL): >50 mg/mL

solubility [2, 7]: > 50 mg/mL
solubility [2, 5]: > 50 mg/mL
solubility [2, 8]: < 1 mg/mL
Molecule: CC(C)OC(=O)CCC/C=C\C[C@@H]1[C@@H](CC[C@@H](O)CCc2ccccc2)[C@H](O)C[C@@H]1O [Latanoprost, reference compound]

solubility [2, 3]: > 100 mg/mL
solubility [2, 4]: < 1 mg/mL
Molecule: CCN(Cc1cccc(OC)c1)C(=O)Nc1ccc(-c2cn[nH]c2)cc1OCCN1CCCC1 [RKI-1y, 3-(4-(1H-pyrazol-4-yl)-2-(2-(pyrrolidin-1-yl)ethoxy)phenyl)-1-ethyl-1-(3-methoxybenzyl)urea, reference compound]

solubility [2, 3]: > 100 mg/mL
solubility [2, 4]: < 1 mg/mL
Molecule: COc1cccc(CN(CCO)C(=O)Nc2ccc(-c3cn[nH]c3)cc2OCCN2CCCC2)c1 [RKI-H-1y, 1-(2-hydroxyethyl)-1-[(3-methoxyphenyl)methyl]-3-[4-(1H-pyrazol-4-yl)-2-[2-(pyrrolidin-1-yl)ethoxy]phenyl]urea, reference compound]

solubility [2, 3]: > 100 mg/mL
solubility [2, 4]: < 1 mg/mL
Molecule: COc1cccc(CN(CCO)C(=O)Nc2ccc(-c3cn[nH]c3)cc2)c1 [SR5834, 1-(2-hydroxyethyl)-1-[(3-methoxyphenyl)methyl]-3-[4-(1H-pyrazol-4-yl)phenyl]urea, reference compound]

Solubility DCM ([2]; Table 3B, DCM): >50 mg/mL
Solubility DMSO ([2]; Table 3B, DMSO): >50 mg/mL
Solubility Water [2, 6]: >50 mg/mL
Molecule: Brinzolamide (n = 1)

Solubility DMSO ([2]; Table 3B, DMSO): >100 mg/mL
Solubility Water [2, 6]: <1.0 mg/mL
Molecule: N-acyl-Timolol-PLA (n = 2)-DHA [N-Acyl-Timolol-PLA (n = 2) DHA]

Solubility DMSO ([2]; Table 3B, DMSO): >50 mg/mL
Solubility Water [2, 6]: <0.00005 mg/mL
Molecule: Timolol-Bis-Acetyl-PLA (n = 4) [Compound 119-1]
